Experimental data from patent publication US12624044B2, “SMARCA degraders and uses thereof” (Kymera Therapeutics, Inc., priority 2019, dated 2026).

Target: SMARCA2 (Homo sapiens, UniProt P51531)
Assay: MSD SMARCA2 degradation in NCI-H1299 cell line (24 h)
Type: cell-based
Parameters: HC: NCI-H1299 cells treated with DMSO; host or cells: NCI-H1299
Conditions: for Dmax: NCI-H1299, NCI-H1299 cells; for DC50: NCI-H1299 cells, read-out: SMARCA2 MSD H1299 degradation 24 h: External Abs-DC50
Outline: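 SMARCA2 measured by MSD electrochemiluminescence (primary 0.3 ug/ml, secondary 1 ug/ml) on lysates from NCI-H1299 cells exposed to compounds for 24 h across nine 3-fold dilutions. Signal scaled from A2780 cells (no SMARCA2) to DMSO-treated H1299 controls, and maximal degradation after 24 h reported in letter categories.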

Sequence of SMARCA2 (P51531 whole entry): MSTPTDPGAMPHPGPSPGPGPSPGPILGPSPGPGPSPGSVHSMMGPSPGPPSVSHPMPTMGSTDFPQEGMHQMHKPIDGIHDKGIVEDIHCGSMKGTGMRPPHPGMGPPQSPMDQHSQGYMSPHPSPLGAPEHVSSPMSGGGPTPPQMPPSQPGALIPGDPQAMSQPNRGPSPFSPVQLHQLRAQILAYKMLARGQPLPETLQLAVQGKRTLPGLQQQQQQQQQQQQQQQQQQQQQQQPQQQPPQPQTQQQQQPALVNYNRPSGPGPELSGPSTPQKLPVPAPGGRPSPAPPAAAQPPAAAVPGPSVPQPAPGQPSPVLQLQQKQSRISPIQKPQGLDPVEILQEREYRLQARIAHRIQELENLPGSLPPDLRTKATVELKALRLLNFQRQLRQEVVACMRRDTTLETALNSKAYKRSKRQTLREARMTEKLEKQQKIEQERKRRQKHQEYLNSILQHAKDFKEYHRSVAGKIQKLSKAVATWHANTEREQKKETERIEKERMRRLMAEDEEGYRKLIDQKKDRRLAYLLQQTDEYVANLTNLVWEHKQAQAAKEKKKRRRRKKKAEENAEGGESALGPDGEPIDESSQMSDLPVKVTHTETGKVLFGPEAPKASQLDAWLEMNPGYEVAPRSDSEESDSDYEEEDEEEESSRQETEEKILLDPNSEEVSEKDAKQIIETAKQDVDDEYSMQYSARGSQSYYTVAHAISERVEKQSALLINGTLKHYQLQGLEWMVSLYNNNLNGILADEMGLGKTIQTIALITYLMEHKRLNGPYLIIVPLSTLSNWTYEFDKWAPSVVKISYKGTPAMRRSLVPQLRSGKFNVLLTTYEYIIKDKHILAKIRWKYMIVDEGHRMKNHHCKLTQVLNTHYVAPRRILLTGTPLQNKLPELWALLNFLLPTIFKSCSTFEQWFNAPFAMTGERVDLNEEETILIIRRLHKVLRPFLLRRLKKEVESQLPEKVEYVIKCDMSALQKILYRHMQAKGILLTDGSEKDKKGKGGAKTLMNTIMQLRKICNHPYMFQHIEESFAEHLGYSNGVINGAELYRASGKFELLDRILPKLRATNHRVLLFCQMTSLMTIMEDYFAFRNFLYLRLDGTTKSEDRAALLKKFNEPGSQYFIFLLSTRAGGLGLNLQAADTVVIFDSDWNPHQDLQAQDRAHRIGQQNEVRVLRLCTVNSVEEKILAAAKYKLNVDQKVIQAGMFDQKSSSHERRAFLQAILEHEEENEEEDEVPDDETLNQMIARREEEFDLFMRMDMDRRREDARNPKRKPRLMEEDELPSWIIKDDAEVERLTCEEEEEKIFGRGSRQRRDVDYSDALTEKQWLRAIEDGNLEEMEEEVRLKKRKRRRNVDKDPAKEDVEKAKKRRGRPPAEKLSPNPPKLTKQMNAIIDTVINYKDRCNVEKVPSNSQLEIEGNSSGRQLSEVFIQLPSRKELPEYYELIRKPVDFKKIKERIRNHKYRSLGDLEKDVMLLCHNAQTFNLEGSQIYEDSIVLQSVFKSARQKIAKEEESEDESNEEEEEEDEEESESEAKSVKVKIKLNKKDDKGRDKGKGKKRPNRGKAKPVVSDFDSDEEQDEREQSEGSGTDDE

Cn1c(=O)n(C2CCC(=O)NC2=O)c2ccc(CCCCCCCCc3cccc(CN4CCN(c5cc(-c6ccccc6O)nnc5N)CC4)c3)cc21 (centres unmarked) [I-152, 3-(5-(8-(3-((4-(3-amino-6-(2-hydroxyphenyl)pyridazin-4-yl)piperazin-1-yl)methyl)phenyl)octyl)-3-methyl-2-oxo-2,3-dihydro-1H-benzo[d]imidazol-1-yl) piperidine-2,6-dione]
Dmax: < 50% | DC50: > 1000 nM

Cn1c(=O)n(C2CCC(=O)NC2=O)c2ccc(CCCOCCCN3CCN(Cc4ccc(-c5cc(-c6ccccc6O)nnc5N)cc4)CC3)cc21 (centres unmarked) [I-153]
Dmax: 50 to 70% | DC50: < 100 nM

Cn1c(=O)n(C2CCC(=O)NC2=O)c2ccc(CCCCN3CCN(Cc4ccc(-c5cc(-c6ccccc6O)nnc5N)cc4)CC3)cc21 (centres unmarked) [I-154]
Dmax: < 50% | DC50: > 1000 nM

Cn1c(=O)n(C2CCC(=O)NC2=O)c2cccc(CCCOCCCCN3CCN(Cc4ccc(-c5cc(-c6ccccc6O)nnc5N)cc4)CC3)c21 (centres unmarked) [I-155]
Dmax: 50 to 70% | DC50: 100 to 500 nM

Cn1c(=O)n(C2CCC(=O)NC2=O)c2ccc(CN3CC(OCCCN4CCN(Cc5ccc(-c6cc(-c7ccccc7O)nnc6N)cc5)CC4)C3)cc21 (centres unmarked) [I-156]
Dmax: 50 to 70% | DC50: > 1000 nM

Cn1c(=O)n(C2CCC(=O)NC2=O)c2ccc(CN3CC[C@@H](OCCCN4CCN(Cc5ccc(-c6cc(-c7ccccc7O)nnc6N)cc5)CC4)C3)cc21 (some centres unmarked) [I-157]
Dmax: 70 to 90% | DC50: 100 to 500 nM

Cn1c(=O)n(C2CCC(=O)NC2=O)c2ccc(CN3CCC(OCCCN4CCN(Cc5ccc(-c6cc(-c7ccccc7O)nnc6N)cc5)CC4)CC3)cc21 (centres unmarked) [I-158]
Dmax: 70 to 90% | DC50: 100 to 500 nM

CN(CCCc1ccc2c(c1)n(C)c(=O)n2C1CCC(=O)NC1=O)Cc1ccc(N2CCN(c3cc(-c4ccccc4O)nnc3N)CC2)cc1 (centres unmarked) [I-159, 3-(5-(3-((4-(4-(3-amino-6-(2-hydroxyphenyl)pyridazin-4-yl)piperazin-1-yl)benzyl)(methyl)amino)propyl)-3-methyl-2-oxo-2,3-dihydro-1H-benzo[d]imidazol-1-yl)piperidine-2,6-dione]
Dmax: < 50% | DC50: > 1000 nM

CN1C(=O)CCC(n2c(=O)n(C)c3cc(CCCOCCCCN4CCN(Cc5ccc(-c6cc(-c7ccccc7O)nnc6N)cc5)CC4)ccc32)C1=O (centres unmarked) [I-160]
Dmax: < 50% | DC50: > 1000 nM

CN(CCCc1cnc(N2C3CCC2CN(c2cc(-c4ccccc4O)nnc2N)C3)nc1)CCCc1ccc2c(c1)n(C)c(=O)n2C1CCC(=O)NC1=O (centres unmarked) [I-161]
Dmax: > 90% | DC50: < 100 nM

Cn1c(=O)n(C2CCC(=O)NC2=O)c2ccc(CN3CCN(Cc4cnc(N5C6CCC5CN(c5cc(-c7ccccc7O)nnc5N)C6)nc4)CC3)cc21 (centres unmarked) [I-163]
Dmax: < 50% | DC50: > 1000 nM

CN(Cc1ccc2c(c1)n(C)c(=O)n2C1CCC(=O)NC1=O)C1CCN(Cc2cnc(N3C4CCC3CN(c3cc(-c5ccccc5O)nnc3N)C4)nc2)CC1 (centres unmarked) [I-164, 3-(5-(((1-((2-(3-(3-amino-6-(2-hydroxyphenyl)pyridazin-4-yl)-3,8-diazabicyclo[3.2.1]octan-8-yl)pyrimidin-5-yl)methyl)piperidin-4-yl)(methyl)amino)methyl)-3-methyl-2-oxo-2,3-dihydro-1H-benzo[d]imidazol-1-yl)piperidine-2,6-dione hydrogen chloride]
Dmax: > 90% | DC50: < 100 nM

Cn1c(=O)n(C2CCC(=O)NC2=O)c2ccc(CCN3CCN(Cc4cnc(N5C6CCC5CN(c5cc(-c7ccccc7O)nnc5N)C6)nc4)CC3)cc21 (centres unmarked) [I-165]
Dmax: > 90% | DC50: < 100 nM

Cn1c(=O)n(C2CCC(=O)NC2=O)c2ccc(CN3CC4(CCN(Cc5cnc(N6C7CCC6CN(c6cc(-c8ccccc8O)nnc6N)C7)nc5)CC4)C3)cc21 (centres unmarked) [I-166]
Dmax: > 90% | DC50: < 100 nM

Cn1c(=O)n(C2CCC(=O)NC2=O)c2ccc(CCCN3CCC(c4cnc(N5C6CCC5CN(c5cc(-c7ccccc7O)nnc5N)C6)nc4)CC3)cc21 (centres unmarked) [I-167, 3-[5-[3-[4-[2-[3-[3-amino-6-(2-hydroxyphenyl)pyridazin-4-yl]-3,8-diazabicyclo[3.2.1]octan-8-yl]pyrimidin-5-yl]-1-piperidyl]propyl]-3-methyl-2-oxo-benzimidazol-1-yl]piperidine-2,6-dione]
Dmax: > 90% | DC50: < 100 nM

Cn1c(=O)n(C2CCC(=O)NC2=O)c2cccc(CN3CCCC(n4cc(-c5cc(-c6ccccc6O)nnc5N)cn4)C3)c21 (centres unmarked) [I-168]
Dmax: 50 to 70% | DC50: 100 to 500 nM

Cn1c(=O)n(C2CCC(=O)NC2=O)c2cccc(CCCN3CCCC(n4cc(-c5cc(-c6ccccc6O)nnc5N)cn4)C3)c21 (centres unmarked) [I-169, 3-(4-(3-(3-(4-(3-amino-6-(2-hydroxyphenyl)pyridazin-4-yl)-1H-pyrazol-1-yl)piperidin-1-yl)propyl)-3-methyl-2-oxo-2,3-dihydro-1H-benzo[d]imidazol-1-yl)piperidine-2,6-dione]
Dmax: > 90% | DC50: < 100 nM

Cn1c(=O)n(C2CCC(=O)NC2=O)c2cccc(CCCCCN3CCCC(n4cc(-c5cc(-c6ccccc6O)nnc5N)cn4)C3)c21 (centres unmarked) [I-170]
Dmax: 70 to 90% | DC50: < 100 nM

Cn1c(=O)n(C2CCC(=O)NC2=O)c2cccc(CCCCCCCN3CCCC(n4cc(-c5cc(-c6ccccc6O)nnc5N)cn4)C3)c21 (centres unmarked) [I-171]
Dmax: 50 to 70% | DC50: > 1000 nM

Cn1c(=O)n(C2CCC(=O)NC2=O)c2cccc(CN3CCC(n4cc(-c5cc(-c6ccccc6O)nnc5N)cn4)CC3)c21 (centres unmarked) [I-173]
Dmax: < 50% | DC50: > 1000 nM

Cn1c(=O)n(C2CCC(=O)NC2=O)c2cccc(CCCN3CCC(n4cc(-c5cc(-c6ccccc6O)nnc5N)cn4)CC3)c21 (centres unmarked) [I-174, 3-[4-[3-[4-[4-[3-amino-6-(2-hydroxyphenyl)pyridazin-4-yl]pyrazol-1-yl]-1-piperidyl]propyl]-3-methyl-2-oxo-benzimidazol-1-yl]piperidine-2,6-dione]
Dmax: > 90% | DC50: < 100 nM

Cn1c(=O)n(C2CCC(=O)NC2=O)c2cccc(CCCCCN3CCC(n4cc(-c5cc(-c6ccccc6O)nnc5N)cn4)CC3)c21 (centres unmarked) [I-175]
Dmax: > 90% | DC50: < 100 nM

Cn1c(=O)n(C2CCC(=O)NC2=O)c2cccc(CCCCCCCN3CCC(n4cc(-c5cc(-c6ccccc6O)nnc5N)cn4)CC3)c21 (centres unmarked) [I-176]
Dmax: 70 to 90% | DC50: < 100 nM

Cn1c(=O)n(C2CCC(=O)NC2=O)c2ccc(CN3CCCC(n4cc(-c5cc(-c6ccccc6O)nnc5N)cn4)C3)cc21 (centres unmarked) [I-177]
Dmax: 70 to 90% | DC50: < 100 nM

Cn1c(=O)n(C2CCC(=O)NC2=O)c2ccc(CCCN3CCCC(n4cc(-c5cc(-c6ccccc6O)nnc5N)cn4)C3)cc21 (centres unmarked) [I-178]
Dmax: 70 to 90% | DC50: < 100 nM

Cn1c(=O)n(C2CCC(=O)NC2=O)c2ccc(CCCCCN3CCCC(n4cc(-c5cc(-c6ccccc6O)nnc5N)cn4)C3)cc21 (centres unmarked) [I-179]
Dmax: 50 to 70% | DC50: 100 to 500 nM

Cn1c(=O)n(C2CCC(=O)NC2=O)c2ccc(CCCCCCCN3CCCC(n4cc(-c5cc(-c6ccccc6O)nnc5N)cn4)C3)cc21 (centres unmarked) [I-180]
Dmax: < 50% | DC50: > 1000 nM

Cn1c(=O)n(C2CCC(=O)NC2=O)c2ccc(CN3CCC(n4cc(-c5cc(-c6ccccc6O)nnc5N)cn4)CC3)cc21 (centres unmarked) [I-181]
Dmax: < 50% | DC50: > 1000 nM

Cn1c(=O)n(C2CCC(=O)NC2=O)c2ccc(CCCN3CCC(n4cc(-c5cc(-c6ccccc6O)nnc5N)cn4)CC3)cc21 (centres unmarked) [I-182]
Dmax: 50 to 70% | DC50: 100 to 500 nM

Cn1c(=O)n(C2CCC(=O)NC2=O)c2ccc(CCCCCN3CCC(n4cc(-c5cc(-c6ccccc6O)nnc5N)cn4)CC3)cc21 (centres unmarked) [I-183]
Dmax: 70 to 90% | DC50: < 100 nM

Cn1c(=O)n(C2CCC(=O)NC2=O)c2ccc(CCCCCCCN3CCC(n4cc(-c5cc(-c6ccccc6O)nnc5N)cn4)CC3)cc21 (centres unmarked) [I-184]
Dmax: < 50% | DC50: > 1000 nM

Cn1c(=O)n(C2CCC(=O)NC2=O)c2cccc(CCCCCCCCN3CCN(c4cc(-c5ccccc5O)nnc4N)CC3)c21 (centres unmarked) [I-185]
Dmax: < 50% | DC50: > 1000 nM

Cn1c(=O)n(C2CCC(=O)NC2=O)c2ccc(CCc3cnc(N4C5CCC4CN(c4cc(-c6ccccc6O)nnc4N)C5)nc3)cc21 (centres unmarked) [I-186, 3-[5-[2-[2-[3-[3-amino-6-(2-hydroxyphenyl)pyridazin-4-yl]-3,8-diazabicyclo[3.2.1]octan-8-yl]pyrimidin-5-yl]ethyl]-3-methyl-2-oxo-benzimidazol-1-yl]piperidine-2,6-dione]
Dmax: 50 to 70% | DC50: 100 to 500 nM

CN1C(=O)CCC(n2c(=O)n(C)c3cc(CCCCCCCc4cnc(N5C6CCC5CN(c5cc(-c7ccccc7O)nnc5N)C6)nc4)ccc32)C1=O (centres unmarked) [I-187]
Dmax: < 50% | DC50: > 1000 nM

Cn1c(=O)n(C2CCC(=O)NC2=O)c2cccc(CCCN3CCC[C@@H](Cn4cc(-c5cc(-c6ccccc6O)nnc5N)cn4)C3)c21 (some centres unmarked) [I-188]
Dmax: 70 to 90% | DC50: 100 to 500 nM

Cn1c(=O)n(C2CCC(=O)NC2=O)c2cccc(CCCCN3CCC[C@@H](Cn4cc(-c5cc(-c6ccccc6O)nnc5N)cn4)C3)c21 (some centres unmarked) [I-189]
Dmax: > 90% | DC50: < 100 nM

Cn1c(=O)n(C2CCC(=O)NC2=O)c2cccc(CCCCCN3CCC[C@@H](Cn4cc(-c5cc(-c6ccccc6O)nnc5N)cn4)C3)c21 (some centres unmarked) [I-190]
Dmax: 70 to 90% | DC50: 100 to 500 nM

Cn1c(=O)n(C2CCC(=O)NC2=O)c2ccc(CCCN3CCC[C@@H](Cn4cc(-c5cc(-c6ccccc6O)nnc5N)cn4)C3)cc21 (some centres unmarked) [I-191]
Dmax: 50 to 70% | DC50: 100 to 500 nM

Cn1c(=O)n(C2CCC(=O)NC2=O)c2ccc(CCCCN3CCC[C@@H](Cn4cc(-c5cc(-c6ccccc6O)nnc5N)cn4)C3)cc21 (some centres unmarked) [I-192]
Dmax: 50 to 70% | DC50: 100 to 500 nM

Cn1c(=O)n(C2CCC(=O)NC2=O)c2ccc(CCCCCN3CCC[C@@H](Cn4cc(-c5cc(-c6ccccc6O)nnc5N)cn4)C3)cc21 (stereo partly drawn) [I-193, 3-[5-[5-[(3R)-3-[[4-[3-amino-6-(2-hydroxyphenyl)pyridazin-4-yl]pyrazol-1-yl]methyl]-1-piperidyl]pentyl]-3-methyl-2-oxo-benzimidazol-1-yl]piperidine-2,6-dione]
Dmax: 50 to 70% | DC50: 501 to 1000 nM
